Measurements taken from ChEMBL document CHEMBL1201862, “PubChem BioAssay data set” (2004).
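How tested: cells in 96-well plates exposed to compound for 48 hours at five concentrations. At the GI50, growth is halved.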 Active and inactive are the calls of the source. Cut-off read from the data, not from the text of the source: active = GI50 up to about 1.1 µM and inactive = higher.

What was measured:
Assay in all cases: DTP human tumour cell line panel, 48 h
HL-60 = test system: HL-60
SNB-19 = test system: SNB-19
U-251 = test system: U-251
COLO 205 = test system: COLO 205
CAKI-1 = test system: CAKI-1
NCI-H522 = test system: NCI-H522
HCT-15 = test system: HCT-15
786-0 = test system: 786-0
RPMI-8226 = test system: RPMI-8226
HT-29 = test system: HT-29
IGROV-1 = test system: IGROV-1
SN12C = test system: SN12C
LXFL 529 = test system: LXFL 529
K562 = test system: K562
M19-MEL = test system: M19-MEL
LOX IMVI = test system: LOX IMVI
M14 = test system: M14
SK-MEL-5 = test system: SK-MEL-5

Structure (SMILES) | GI50 (HL-60) | GI50 (SNB-19) | GI50 (U-251) | GI50 (COLO 205) | GI50 (CAKI-1) | GI50 (NCI-H522) | GI50 (HCT-15) | GI50 (786-0) | GI50 (RPMI-8226) | GI50 (HT-29) | GI50 (IGROV-1) | GI50 (SN12C) | GI50 (LXFL 529) | GI50 (K562) | GI50 (M19-MEL) | GI50 (LOX IMVI) | GI50 (M14) | GI50 (SK-MEL-5)
OCC1OC(c2nc(C3=NCCCN3)cs2)C(O)C1O (stereo not given) | > 100 µM (inactive) | > 100 µM (inactive) | > 100 µM (inactive) | > 100 µM (inactive) | > 100 µM (inactive) | > 100 µM (inactive) | > 100 µM | > 100 µM (inactive) | > 100 µM (inactive) | > 100 µM (inactive) | > 100 µM (inactive) | > 100 µM (inactive) | > 100 µM (inactive) | > 100 µM (inactive) | > 100 µM (inactive) | > 100 µM (inactive) | > 100 µM (inactive) | –
CC(C)CCC[C@@H](C)[C@H]1CC[C@H]2[C@@H]3CC=C4CC(OCCCCN(O)CCCSC5OC(CO)C(O)C(O)C5O)CC[C@]4(C)[C@H]3CC[C@]12C (stereo not given in full) | 25.8 µM (inactive) | > 100 µM (inactive) | 30.2 µM (inactive) | 25.6 µM (inactive) | > 100 µM (inactive) | 23.1 µM (inactive) | 43.4 µM | 18 µM (inactive) | > 100 µM (inactive) | 30.4 µM (inactive) | 22.1 µM (inactive) | > 100 µM (inactive) | 23 µM (inactive) | 36.3 µM (inactive) | > 100 µM (inactive) | 21.8 µM (inactive) | 25 µM (inactive) | 70.5 µM (inactive)
C/C=C(\C)c1cc(O)c(C)c2c1Oc1cc(O)c(Cl)c(C)c1C(=O)O2 | 36 µM (inactive) | 17.3 µM (inactive) | 23.4 µM (inactive) | 25.3 µM (inactive) | 27.4 µM (inactive) | 19.4 µM (inactive) | – | 25.6 µM (inactive) | – | 19.2 µM (inactive) | – | 16.6 µM (inactive) | 24.8 µM (inactive) | – | 34 µM (inactive) | 17.6 µM (inactive) | 20.1 µM (inactive) | 13.9 µM (inactive)
CN(C)c1nc(N(C)c2ccccc2)[s+]s1 | 15.7 µM (inactive) | > 100 µM (inactive) | 31.6 µM (inactive) | – | > 100 µM (inactive) | > 100 µM (inactive) | 54.3 µM | 51.5 µM (inactive) | – | 89.5 µM (inactive) | > 100 µM (inactive) | 44.8 µM (inactive) | 36.8 µM (inactive) | 35.1 µM (inactive) | 18.9 µM (inactive) | – | 32.4 µM (inactive) | 36.5 µM (inactive)
CCOc1cccc2nc3cccc(C(=O)NCCN(C)C)c3nc12 | – | 1.89 µM (inactive) | 1.34 µM (inactive) | 0.632 µM (active) | 3.16 µM (inactive) | 2.3 µM (inactive) | 1.08 µM | 2.51 µM (inactive) | 0.948 µM (active) | 0.605 µM (active) | 1.04 µM (active) | 0.719 µM (active) | 1.79 µM (inactive) | 0.47 µM (active) | 1.2 µM (inactive) | 0.48 µM (active) | 2.19 µM (inactive) | 1.78 µM (inactive)
C=CCCC12CCCC(=O)C1Sc1ccc3ccccc3c12 (stereo not given) | 7.08 µM (inactive) | 24.4 µM (inactive) | 16.6 µM (inactive) | 12.9 µM (inactive) | 9.04 µM (inactive) | 15 µM (inactive) | 11.1 µM | 17.9 µM (inactive) | 12.9 µM (inactive) | 20.1 µM (inactive) | 33.8 µM (inactive) | 14.6 µM (inactive) | 15.2 µM (inactive) | 16.8 µM (inactive) | 24.1 µM (inactive) | 13.6 µM (inactive) | 13.2 µM (inactive) | > 10 µM (inactive)
CSc1ccc(OCC2OC2O)cc1 (stereo not given) | 27.3 µM (inactive) | > 92.5 µM (inactive) | 28.6 µM (inactive) | 16.5 µM (inactive) | > 50.9 µM (inactive) | 23.8 µM (inactive) | 23.5 µM | 66.4 µM (inactive) | 30.8 µM (inactive) | 32.3 µM (inactive) | > 100 µM (inactive) | 62.2 µM (inactive) | 29 µM (inactive) | 52.8 µM (inactive) | 37.7 µM (inactive) | 16.9 µM (inactive) | 49.5 µM (inactive) | 16 µM (inactive)
C(=N\OCc1ccccc1)/c1ncccc1C1OCCO1 | > 100 µM (inactive) | > 100 µM (inactive) | > 100 µM (inactive) | > 100 µM (inactive) | > 100 µM (inactive) | > 100 µM (inactive) | > 100 µM | > 100 µM (inactive) | – | > 100 µM (inactive) | > 100 µM (inactive) | > 100 µM (inactive) | > 100 µM (inactive) | > 100 µM (inactive) | > 100 µM (inactive) | > 100 µM (inactive) | > 100 µM (inactive) | > 100 µM (inactive)
Cc1c(Cl)cccc1NC(=O)CC1C(=O)Nc2ccccc2S1(=O)=O (stereo not given) | 2.72 µM (inactive) | 33 µM (inactive) | 13.1 µM (inactive) | – | 19.9 µM (inactive) | – | 10.3 µM | 17.3 µM (inactive) | 11.6 µM (inactive) | 17.6 µM (inactive) | 15.3 µM (inactive) | 16.7 µM (inactive) | 15.3 µM (inactive) | 5.5 µM (inactive) | 20.4 µM (inactive) | 14.6 µM (inactive) | 14.2 µM (inactive) | 12.2 µM (inactive)
COc1cc(OC)c2c(c1)C(=O)C(CC1(C)OCCCO1)=CC2=O | 2.17 µM (inactive) | 18.2 µM (inactive) | 17.4 µM (inactive) | 14.3 µM (inactive) | 8 µM (inactive) | 3.43 µM (inactive) | 3.92 µM | 9.77 µM (inactive) | 3.78 µM (inactive) | 13.8 µM (inactive) | 17.9 µM (inactive) | 14 µM (inactive) | 6.12 µM (inactive) | 2.74 µM (inactive) | 3.37 µM (inactive) | 4.34 µM (inactive) | 13 µM (inactive) | 8.04 µM (inactive)
Ic1cc2c(cc1C1SCCCS1)OCO2 | > 100 µM (inactive) | > 100 µM (inactive) | > 100 µM (inactive) | > 100 µM (inactive) | > 100 µM (inactive) | > 100 µM (inactive) | > 100 µM | > 100 µM (inactive) | > 100 µM (inactive) | > 100 µM (inactive) | > 100 µM (inactive) | > 100 µM (inactive) | > 100 µM (inactive) | > 100 µM (inactive) | > 100 µM (inactive) | > 100 µM (inactive) | > 100 µM (inactive) | > 100 µM (inactive)
CN(/N=C/c1cccc2cccnc12)c1ccc([N+](=O)[O-])cc1 | > 100 µM (inactive) | > 100 µM (inactive) | – | > 100 µM (inactive) | > 100 µM (inactive) | – | > 100 µM | > 100 µM (inactive) | > 100 µM (inactive) | 20.7 µM (inactive) | > 100 µM (inactive) | > 100 µM (inactive) | > 100 µM (inactive) | > 100 µM (inactive) | > 100 µM (inactive) | > 100 µM (inactive) | > 100 µM (inactive) | > 100 µM (inactive)
Cc1ccc([N+](=O)[O-])cc1NC(=O)C(=O)Cc1cc(=O)oc2cc(O)ccc12 | > 100 µM (inactive) | > 100 µM (inactive) | > 100 µM (inactive) | 42.8 µM (inactive) | > 100 µM (inactive) | > 100 µM (inactive) | > 100 µM | > 100 µM (inactive) | 32.1 µM (inactive) | > 100 µM (inactive) | > 100 µM (inactive) | > 100 µM (inactive) | 56.5 µM (inactive) | 46.3 µM (inactive) | > 100 µM (inactive) | 26.6 µM (inactive) | > 100 µM (inactive) | > 100 µM (inactive)
